In ChEMBL document CHEMBL1156592, “4-(1H-indazol-5-yl)-6-phenylpyrimidin-2(1H)-one analogs as potent CDC7 inhibitors” (Bioorg Med Chem Lett, 2008) one finds IC50, GI50 and half-life data, which are given here for 13 compounds.

Data set [1] concerns the target Cell division cycle 7-related protein kinase (Homo sapiens, UniProt O00311). Nature of the data set: Inhibition of CDC7-DBF4.
A further data set relates to A549. Nature of the data set: Growth inhibition of human A549 cells. It counts as functional.
Data set [2] can be described thus: Metabolic stability in mouse microsomes assessed as half life. It counts as ADME, Microsome.

Chain of Cell division cycle 7-related protein kinase (O00311 whole entry): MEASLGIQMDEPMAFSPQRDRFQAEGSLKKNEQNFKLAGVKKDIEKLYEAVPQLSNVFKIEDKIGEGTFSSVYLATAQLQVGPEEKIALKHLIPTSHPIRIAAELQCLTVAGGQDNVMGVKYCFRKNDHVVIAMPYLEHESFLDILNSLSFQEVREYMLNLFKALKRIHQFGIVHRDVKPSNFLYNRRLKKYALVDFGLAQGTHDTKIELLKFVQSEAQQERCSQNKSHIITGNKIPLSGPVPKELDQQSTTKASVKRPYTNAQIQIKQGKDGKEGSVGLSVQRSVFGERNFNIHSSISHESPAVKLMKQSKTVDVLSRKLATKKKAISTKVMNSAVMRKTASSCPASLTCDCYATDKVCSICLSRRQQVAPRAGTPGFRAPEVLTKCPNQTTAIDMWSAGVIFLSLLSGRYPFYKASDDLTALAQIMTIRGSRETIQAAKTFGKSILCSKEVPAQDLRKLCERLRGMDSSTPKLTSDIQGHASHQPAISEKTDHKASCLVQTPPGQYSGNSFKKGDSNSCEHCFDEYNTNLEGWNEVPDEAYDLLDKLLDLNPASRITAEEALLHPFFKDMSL

For the compound `CCc1ccc(-c2cc(-c3ccc4n[nH]cc4c3)nc(=O)[nH]2)cc1`, the midpoint of inhibition in data set [1], the IC50, lay at 100 nM. Still for that read-out and setting: the same measure for `O=c1nc(-c2ccc3[nH]ncc3c2)cc(-c2ccc(N3CCNCC3)cc2)[nH]1`: 40 nM; for `COc1ccc(-c2cc(-c3ccnc(N)c3)nc(=O)[nH]2)c(OC)c1`: 1000 nM.

`O=c1nc(-c2ccc(O)cc2)cc(-c2ccccc2)[nH]1` showed a GI50 with A549 of over 10000 nM. Moreover, the half-life in data set [2] came out at 4 min. In data set [1], the IC50 worked out at 30 nM. On to `O=c1nc(-c2ccc3[nH]ncc3c2)cc(-c2cccc(F)c2)[nH]1`, for which half-maximal inhibition in data set [1] (IC50) required 150 nM. Still for that read-out and setting: the same measure for `O=c1nc(-c2ccc3[nH]ncc3c2)cc(-c2ccc(OCc3ccccc3)cc2)[nH]1`: 350 nM; for `COc1ccc(-c2cc(-c3ccnc(N(C)C)c3)nc(=O)[nH]2)c(OC)c1`: 7300 nM; for `O=c1nc(-c2ccc3[nH]ncc3c2)cc(-c2ccccc2F)[nH]1`: 10 nM. In the case of `Cc1cc(-c2cc(-c3ccccc3)[nH]c(=O)n2)ccc1O`, the GI50 with A549 was over 10000 nM. In data set [1], `O=c1nc(-c2ccncc2)cc(-c2cccc(Cl)c2)[nH]1` returned an IC50 of over 13000 nM. On the same count and under the same terms, to `O=c1nc(-c2ccc3[nH]ncc3c2)cc(-c2cccc(OCc3ccccc3)c2)[nH]1` belongs 6 nM.

The compound `O=c1nc(-c2ccc3[nH]ncc3c2)cc(-c2cccc(Cl)c2)[nH]1` gave a GI50 in the data set on A549 of 600 nM. The IC50 in data set [1] stood at 5 nM.

`O=c1nc(-c2ccc3[nH]ncc3c2)cc(-c2cccc(C(F)(F)F)c2)[nH]1`: half-maximal inhibition in data set [1] (IC50) was put at 110 nM.

Usually IC50 stands for the midpoint of a concentration-inhibition curve. As usually defined, the GI50 is the concentration at which growth is held to half of that of the control. Higher therefore signals lower sensitivity of the cells. In general, half-life refers to the time needed for the level to fall by half in the phase considered.
